# According to patent publication US10517889B2, “Modulators of SMAD7 expression” (Ionis Pharmaceuticals, Inc., priority 2017, dated 2019):
# Strand notation (5' to 3'): a small letter for the sugar, then the base; units joined by * are phosphorothioate-linked, units joined directly phosphodiester-linked; [ ] holds rarer units or linkages, { } end groups; capitals alone tell only the bases. e = 2'-O-(2-methoxyethyl) (MOE); [5mC] = 5-methylcytosine; d = 2'-deoxy (DNA)
# Tested on: human SMAD7 mRNA
# Experiment: Antisense inhibition of human SMAD7 mRNA expression in Hep3B cells by 5-10-5 MOE gapmers, single concentration, electroporation, RT-PCR (Example 1, Study 1 and 2)
# Assay type: cell-based
# Details: for % Inhibition: Study 2, electroporation with 15,000 nM antisense oligonucleotide; for % Inhibition of SMAD7 mRNA: electroporation with 15,000 nM antisense oligonucleotide (Study 2)
# Experimental: Antisense oligonucleotides were designed to target human SMAD7 mRNA and were tested for their effects on SMAD7 mRNA expression in vitro. Cultured Hep3B cells at a density of 20,000 cells per well were transfected using electroporation with antisense oligonucleotide ION 483663 (a 5-10-5 MOE gapmer), the sequence of which overlaps with ION 28453 (a 4-10-4 MOE gapmer) was included in these assays for comparison. ION 28453 has been previously disclosed in U.S. Pat. No. 6,159,697). After a treatment period of approximately 24 hours, RNA was isolated from the cells and SMAD7 mRNA levels were measured by quantitative real-time PCR. Primer probe set RTS5062 (forward sequence […], designated herein as SEQ ID NO: 11; reverse sequence […], designated herein as SEQ ID NO: 12; probe sequence […], designated herein as SEQ ID NO: 13) was used to measure human SMAD7 mRNA levels. SMAD7 mRNA levels were adjusted according to total RNA content, as measured by RIBOGREEN®. Results are presented as percent inhibition of SMAD7 mRNA expression, relative to untreated control cells.
# The newly designed chimeric antisense oligonucleotides in the Tables below were designed as 5-10-5 MOE gapmers. The gapmers are 20 nucleosides in length, wherein the central gap segment comprises of ten 2′-deoxynucleosides and is flanked by wing segments on the 5′ direction and the 3′ direction comprising five nucleosides each. Each nucleoside in the 5′ wing segment and each nucleoside in the 3′ wing segment has a 2′-MOE modification. The internucleoside linkages throughout each gapmer are phosphorothioate (P═S) linkages. All cytosine residues throughout each gapmer are 5-methylcytosines.
# “Start site” indicates the 5′-most nucleoside to which the gapmer is targeted in the human gene sequence. “Stop site” indicates the 3′-most nucleoside to which the gapmer is targeted human gene sequence.
# Cultured Hep3B cells at a density of 20,000 cells per well were transfected using electroporation with 5,000 nM antisense oligonucleotide.
# Cultured Hep3B cells at a density of 20,000 cells per well were transfected using electroporation with 15,000 nM antisense oligonucleotide. The antisense oligonucleotides were tested in a series of experiments that had similar culture conditions as described below.
# Some of the oligonucleotides presented were complementary to SMAD7 mRNA sequences RefSeqNo. NM_001190821.1 (designated herein as SEQ ID NO: 3) or RefSeqNo. NM_001190822.1 (designated herein as SEQ ID NO: 4), and are presented in a separate table shown below.
# [1] = 5-10-5 MOE gapmers targeting SEQ ID NO: 1 and 2
# [2] = electroporation, 15,000 nM antisense oligonucleotide (Study 2), 5-10-5 MOE gapmers targeting SEQ ID NO: 1 and 2
# [3] = electroporation, 5,000 nM, approximately 24 hours, relative to untreated control cells, gapmers targeting SEQ ID NO: 1 and 2
# [4] = electroporation, 15,000 nM, approximately 24 hours, relative to untreated control cells, gapmers targeting SEQ ID NO: 1 and 2
Substance,% Inhibition [1] [%],% inhibition of SMAD7 mRNA expression [2] [%],further results
771377 (antisense eT*eA*eA*eG*e[5mC]*dA*d[5mC]*dG*d[5mC]*dT*d[5mC]*dT*dA*dA*dA*e[5mC]*eA*eG*e[5mC]*eA) [compound 771377],0,–,–
771378 (antisense eA*eT*e[5mC]*eT*eT*dT*dA*dA*dG*d[5mC]*dA*d[5mC]*dG*d[5mC]*dT*e[5mC]*eT*eA*eA*eA) [compound 771378],22,–,–
771379 (antisense eG*eA*eT*e[5mC]*e[5mC]*dA*dT*d[5mC]*dT*dT*dT*dA*dA*dG*d[5mC]*eA*e[5mC]*eG*e[5mC]*eT) [compound 771379],–,0,% Inhibition of SMAD7 mRNA [1]: 21%
771380 (antisense eA*e[5mC]*e[5mC]*eA*eA*dG*dA*dT*d[5mC]*d[5mC]*dA*dT*d[5mC]*dT*dT*eT*eA*eA*eG*e[5mC]) [compound 771380],–,0,–
771381 (antisense eA*eA*eA*eA*e[5mC]*dA*d[5mC]*d[5mC]*dA*dA*dG*dA*dT*d[5mC]*d[5mC]*eA*eT*e[5mC]*eT*eT) [compound 771381],–,0,–
771382 (antisense eA*eA*eA*eT*eA*dA*dA*dA*dA*d[5mC]*dA*d[5mC]*d[5mC]*dA*dA*eG*eA*eT*e[5mC]*e[5mC]) [compound 771382],0,–,% inhibition of SMAD7 mRNA expression [3]: 55%
771383 (antisense eT*eA*e[5mC]*eA*e[5mC]*dA*dA*dA*dT*dA*dA*dA*dA*dA*d[5mC]*eA*e[5mC]*e[5mC]*eA*eA) [compound 771383],0,–,–
771384 (antisense eT*eG*e[5mC]*eT*eG*dT*dG*dG*dA*dT*dT*dT*dG*dA*dA*eA*eA*eG*eG*eG) [compound 771384],–,–,% inhibition of SMAD7 mRNA expression [4]: 18%
771385 (antisense e[5mC]*eA*eG*eT*e[5mC]*dT*dG*d[5mC]*dT*dG*dT*dG*dG*dA*dT*eT*eT*eG*eA*eA) [compound 771385],25,–,–
771388 (antisense eG*e[5mC]*eG*e[5mC]*e[5mC]*d[5mC]*dT*dG*d[5mC]*dG*d[5mC]*dG*dG*d[5mC]*dT*e[5mC]*eT*e[5mC]*e[5mC]*eG) [compound 771388],–,31,–
771389 (antisense e[5mC]*eA*e[5mC]*e[5mC]*e[5mC]*d[5mC]*dG*d[5mC]*dG*d[5mC]*dG*dG*d[5mC]*d[5mC]*d[5mC]*eG*e[5mC]*eG*e[5mC]*e[5mC]) [compound 771389],–,18,–
771391 (antisense eT*e[5mC]*e[5mC]*eG*eG*d[5mC]*dT*dG*d[5mC]*d[5mC]*d[5mC]*d[5mC]*dA*d[5mC]*d[5mC]*e[5mC]*e[5mC]*eG*e[5mC]*eG) [compound 771391],16,–,–
771392 (antisense e[5mC]*eT*e[5mC]*e[5mC]*eG*dG*d[5mC]*dT*dG*d[5mC]*d[5mC]*d[5mC]*d[5mC]*dA*d[5mC]*e[5mC]*e[5mC]*e[5mC]*eG*e[5mC]) [compound 771392],–,–,% inhibition of SMAD7 mRNA expression [4]: 28%
771393 (antisense eG*e[5mC]*eT*e[5mC]*e[5mC]*dG*dG*d[5mC]*dT*dG*d[5mC]*d[5mC]*d[5mC]*d[5mC]*dA*e[5mC]*e[5mC]*e[5mC]*e[5mC]*eG) [compound 771393],0,–,–
771394 (antisense e[5mC]*eG*e[5mC]*eT*e[5mC]*d[5mC]*dG*dG*d[5mC]*dT*dG*d[5mC]*d[5mC]*d[5mC]*d[5mC]*eA*e[5mC]*e[5mC]*e[5mC]*e[5mC]) [compound 771394],10,–,–
771395 (antisense eG*e[5mC]*eG*e[5mC]*eT*d[5mC]*d[5mC]*dG*dG*d[5mC]*dT*dG*d[5mC]*d[5mC]*d[5mC]*e[5mC]*eA*e[5mC]*e[5mC]*e[5mC]) [compound 771395],–,0,% Inhibition of SMAD7 mRNA [1]: 34%
771396 (antisense e[5mC]*eT*eG*e[5mC]*eG*d[5mC]*dT*d[5mC]*d[5mC]*dG*dG*d[5mC]*dT*dG*d[5mC]*e[5mC]*e[5mC]*e[5mC]*eA*e[5mC]) [compound 771396],–,48,–

Substance,% Inhibition [1] [%],% inhibition of SMAD7 mRNA expression [2] [%],further results
771398 (antisense eG*eG*e[5mC]*eA*eG*dG*dA*dG*d[5mC]*dG*dG*d[5mC]*dG*dG*d[5mC]*eG*eG*e[5mC]*e[5mC]*e[5mC]) [compound 771398],48,–,% inhibition of SMAD7 mRNA expression [3]: 53%
771400 (antisense e[5mC]*eG*eA*e[5mC]*eA*dG*d[5mC]*dA*dG*d[5mC]*dA*dG*d[5mC]*dA*dG*e[5mC]*eA*eG*eG*eG) [compound 771400],–,–,% inhibition of SMAD7 mRNA expression [4]: 52%
771401 (antisense eG*e[5mC]*eA*eG*eG*d[5mC]*dG*dA*d[5mC]*dA*dG*d[5mC]*dA*dG*d[5mC]*eA*eG*e[5mC]*eA*eG) [compound 771401],21,–,–
771402 (antisense e[5mC]*eA*eG*eG*e[5mC]*dG*d[5mC]*dA*dG*dG*d[5mC]*dG*dA*d[5mC]*dA*eG*e[5mC]*eA*eG*e[5mC]) [compound 771402],31,–,–
771404 (antisense e[5mC]*eG*eA*eA*e[5mC]*dA*dT*dG*dA*d[5mC]*d[5mC]*dT*d[5mC]*d[5mC]*dG*e[5mC]*eA*e[5mC]*eA*e[5mC]) [compound 771404],–,51,–
771405 (antisense eA*eG*e[5mC]*eG*eA*dA*d[5mC]*dA*dT*dG*dA*d[5mC]*d[5mC]*dT*d[5mC]*e[5mC]*eG*e[5mC]*eA*e[5mC]) [compound 771405],25,–,–
771406 (antisense eG*eA*eG*e[5mC]*eG*dA*dA*d[5mC]*dA*dT*dG*dA*d[5mC]*d[5mC]*dT*e[5mC]*e[5mC]*eG*e[5mC]*eA) [compound 771406],–,–,% inhibition of SMAD7 mRNA expression [4]: 55%
771408 (antisense eT*eG*e[5mC]*eT*eA*dA*dG*dG*dA*dG*d[5mC]*dG*dA*dA*d[5mC]*eA*eT*eG*eA*e[5mC]) [compound 771408],36,–,–
771409 (antisense e[5mC]*e[5mC]*e[5mC]*e[5mC]*eT*dG*d[5mC]*dG*d[5mC]*d[5mC]*d[5mC]*dT*d[5mC]*d[5mC]*dT*e[5mC]*e[5mC]*eT*e[5mC]*eG) [compound 771409],–,19,% Inhibition of SMAD7 mRNA [1]: 33%
771410 (eG*e[5mC]*eT*e[5mC]*eG*d[5mC]*d[5mC]*dT*d[5mC]*d[5mC]*dT*d[5mC]*d[5mC]*dT*d[5mC]*e[5mC]*eA*e[5mC]*e[5mC]*eT; antisense) [compound 771410],–,37,–
771411 (e[5mC]*e[5mC]*eT*eT*e[5mC]*dT*d[5mC]*d[5mC]*d[5mC]*d[5mC]*dG*d[5mC]*dA*dG*d[5mC]*eT*e[5mC]*eG*e[5mC]*e[5mC]; antisense) [compound 771411],–,33,–
771412 (eT*e[5mC]*eG*e[5mC]*e[5mC]*d[5mC]*d[5mC]*dT*dT*d[5mC]*dT*d[5mC]*d[5mC]*d[5mC]*d[5mC]*eG*e[5mC]*eA*eG*e[5mC]; antisense) [compound 771412],38,–,% inhibition of SMAD7 mRNA expression [3]: 52%
771413 (eT*eG*eT*e[5mC]*e[5mC]*dG*dT*d[5mC]*dG*d[5mC]*d[5mC]*d[5mC]*d[5mC]*dT*dT*e[5mC]*eT*e[5mC]*e[5mC]*e[5mC]; antisense) [compound 771413],24,–,–
771415 (eT*eG*e[5mC]*eG*e[5mC]*dT*d[5mC]*dG*dG*d[5mC]*dT*dG*dT*d[5mC]*d[5mC]*eG*eT*e[5mC]*eG*e[5mC]; antisense) [compound 771415],36,–,–
771417 (eA*e[5mC]*e[5mC]*eG*eG*d[5mC]*d[5mC]*d[5mC]*d[5mC]*dA*dT*dG*d[5mC]*dG*d[5mC]*eT*e[5mC]*eG*eG*e[5mC]; antisense) [compound 771417],–,16,% Inhibition of SMAD7 mRNA [1]: 24%
771419 (eG*eG*e[5mC]*e[5mC]*eG*d[5mC]*d[5mC]*dG*d[5mC]*d[5mC]*dA*d[5mC]*d[5mC]*dG*dG*e[5mC]*e[5mC]*e[5mC]*e[5mC]*eA; antisense) [compound 771419],–,37,–
771420 (eG*e[5mC]*e[5mC]*e[5mC]*eG*dG*dG*d[5mC]*d[5mC]*dG*d[5mC]*d[5mC]*dG*d[5mC]*d[5mC]*eA*e[5mC]*e[5mC]*eG*eG; antisense) [compound 771420],54,–,% inhibition of SMAD7 mRNA expression [3]: 1%
